Results from US10106853B2, “CUL4B as predictive biomarker for cancer treatment” (CORNELL UNIVERSITY, priority 2012, dated 2018).

Assays:
[1] = system: BT474 cells; experiment: XTT Cell Proliferation Assay, growth rate of BT474 cells in vitro; assay type: cell-based, Human; details: knockdown cells vs control, no drug
Method: FIG. 5. CUL4B inactivation sensitized BT474 xenograft tumors to topotecan. Stable TGL-BT474 cells (BT474 cells stably expressing GFP-luciferase reporter) were established by retroviral transduction and FACS sorting. The resulting TGL-BT474 cells were infected with recombinant lentiviruses expressing non-targeting shCtrl, shCUL4A or shCUL4B, followed by selection of infected cells with 4 μg/ml puromycine for one week. A) Knockdown of endogenous CUL4A and 4B were verified by immunoblotting. […] Statistical significance in tumor burden between control and CUL4A^k/d or CUL4B^k/d xenograph are assessed by a two-tailed unpaired student t-test (***: p<0.001). […] The same number of control, CUL4A^k/d and CUL4B^k/d BT474 cells were seeded to 96-well plates and cell proliferation was measured using the XTT Cell Proliferation Assay Kit. […] Statistical significance in cellular rate between control cells and CUL4A^k/d or CUL4B^k/d cells are assessed by student's t-test. […] 1×10^7 of control, CUL4A^k/d or CUL4B^k/d TGL-BT474 cells were injected subcutaneously in the right flank of each mouse of athymic Nu/J nude mice, and tumor burden was measured by bioluminescent imaging (E). On the 22nd day, tumors were collected, and the weight of exercised tumors was measured after mice were sacrificed (F).

[2] = system: γH2AX in BT474 cells; experiment: Western blot analysis for γH2AX; assay type: cell-based, Human; details: CPT-treated BT474 cells with CUL4B silencing via shRNA vs control; 2 μM CPT
Method: FIG. 3. CUL4B^k/d BT474 cells are susceptible to CPT-induced DNA damage. A) Persistent DNA damage in CPT-treated BT474-CUL4B^k/d cells. Control or CUL4B^k/d BT474 cells were treated with 2 μM of CPT for the indicated time periods, replenished with CPT-free fresh medium, incubated at 37° C. for 1 hour to repair DNA damage, and subjected to immunoblotting with the anti-γH2AX antibody to determine the extent of DNA damage. B) Immunofluorescent detection of γH2AX foci in control or CUL4B^k/d BT474 cells following CPT treatment. BT474 cells were infected with lentiviral control shRNA (shCtrl) or shCUL4B, treated with 2 μM CPT for 2 hours and replenished with CPT-free fresh medium, incubated at 37° C. for 1 hour to repair DNA damage. γH2AX foci were detected by immunofluorescent assay with the rabbit anti-γH2AX antibody and goat anti-rabbit secondary antibody conjugated with cy3 (red). Nuclei were stained with DAPI (blue). C, D) Percentage of γH2AX-positive cells and number of persistent γH2AX foci in a total of 300 γH2AX-positive cells. All values were presented as mean±S.E. Statistical significance was assessed by a two-tailed unpaired Student t-test (***: p<0.001). […]

[3] = target: T1, CUL4B-Top1 interaction (Homo sapiens, UniProt P11387); experiment: Co-immunoprecipitation of CUL4B and Top1 in BT474 cells; assay type: cell-based; details: BT474 cells in the presence of CPT, crosslinked
T1 construct: Top1 was co-immunoprecipitated with CUL4B in the presence of CPT; host or cells: BT474 human breast cancer cells
T1 sequence (P11387 2-765 limits assumed): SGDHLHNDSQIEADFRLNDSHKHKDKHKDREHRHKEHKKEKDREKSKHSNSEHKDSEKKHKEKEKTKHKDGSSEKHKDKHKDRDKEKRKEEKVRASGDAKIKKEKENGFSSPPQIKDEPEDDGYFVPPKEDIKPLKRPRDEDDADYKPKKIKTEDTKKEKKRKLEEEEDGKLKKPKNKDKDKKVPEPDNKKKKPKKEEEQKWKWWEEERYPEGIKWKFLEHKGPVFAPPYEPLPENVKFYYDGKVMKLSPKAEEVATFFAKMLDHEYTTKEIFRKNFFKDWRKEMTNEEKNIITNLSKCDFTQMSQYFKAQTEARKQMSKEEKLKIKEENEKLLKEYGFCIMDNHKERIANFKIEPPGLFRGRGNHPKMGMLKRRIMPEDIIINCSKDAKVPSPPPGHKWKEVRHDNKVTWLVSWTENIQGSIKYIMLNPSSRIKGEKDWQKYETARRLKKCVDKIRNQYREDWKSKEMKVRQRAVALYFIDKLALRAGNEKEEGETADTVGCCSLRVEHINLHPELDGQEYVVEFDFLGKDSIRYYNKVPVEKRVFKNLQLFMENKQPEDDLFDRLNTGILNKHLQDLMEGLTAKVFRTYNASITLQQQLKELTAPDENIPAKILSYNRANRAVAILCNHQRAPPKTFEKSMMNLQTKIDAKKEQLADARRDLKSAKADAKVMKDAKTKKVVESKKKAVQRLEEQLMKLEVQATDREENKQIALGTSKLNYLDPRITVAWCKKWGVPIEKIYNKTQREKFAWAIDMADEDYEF
T1 sequence (Q13620 whole entry partner): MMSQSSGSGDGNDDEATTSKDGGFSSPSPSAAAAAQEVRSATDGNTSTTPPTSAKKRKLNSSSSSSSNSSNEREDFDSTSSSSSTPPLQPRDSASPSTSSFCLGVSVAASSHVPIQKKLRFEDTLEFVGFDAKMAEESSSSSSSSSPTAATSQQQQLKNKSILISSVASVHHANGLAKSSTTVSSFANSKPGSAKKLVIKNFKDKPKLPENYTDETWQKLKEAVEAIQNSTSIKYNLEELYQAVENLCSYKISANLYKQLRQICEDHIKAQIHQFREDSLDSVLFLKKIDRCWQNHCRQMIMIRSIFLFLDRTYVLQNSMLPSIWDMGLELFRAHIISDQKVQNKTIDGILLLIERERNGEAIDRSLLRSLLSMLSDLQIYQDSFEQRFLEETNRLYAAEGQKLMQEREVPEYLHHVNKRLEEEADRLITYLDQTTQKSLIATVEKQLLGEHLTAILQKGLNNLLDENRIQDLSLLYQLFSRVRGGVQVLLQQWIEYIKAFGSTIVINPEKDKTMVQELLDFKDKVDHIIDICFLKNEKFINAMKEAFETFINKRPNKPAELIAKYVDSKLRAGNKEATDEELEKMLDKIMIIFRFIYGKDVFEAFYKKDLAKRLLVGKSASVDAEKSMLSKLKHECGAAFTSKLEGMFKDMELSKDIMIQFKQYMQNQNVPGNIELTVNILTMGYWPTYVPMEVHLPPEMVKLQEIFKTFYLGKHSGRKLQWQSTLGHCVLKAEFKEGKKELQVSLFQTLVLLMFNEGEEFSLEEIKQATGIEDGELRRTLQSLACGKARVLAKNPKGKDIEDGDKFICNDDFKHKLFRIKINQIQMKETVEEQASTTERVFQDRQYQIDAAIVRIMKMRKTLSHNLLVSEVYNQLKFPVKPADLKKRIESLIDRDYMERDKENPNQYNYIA
Method: BT474 cells were infected with lentiviral shCUL4B, shCUL4A or control non-targeting shRNA, and selected for stable CUL4B^k/d or CUL4A^k/d cells upon treatment with puromycin. Following treatment with CPT (50 μM) for 1 hour, cells were replenished with CPT-free fresh medium and incubated at 37° C. for 30 minutes. Top1 degradation was assessed by immunoblotting with an anti-Top1 antibody. Levels of α-tubulin were measured as a loading control. B) Association of CUL4B with Top1 following CPT treatment. BT474 cells were treated with proteosome inhibitor MG132 (15 μM) for 3 hours, and were subjected to crosslinking with 0.2 mM Dithiobis[succinimidyl propionate](DSP) for the last 30 min at room temperature. Cell lysates were prepared, and immunoprecipitated with the anti-Top1 or anti-CUL4B antibodies, and then immunoblotted using antibodies against CUL4B or Top1, respectively. […] Top1 degradation was assessed by immunoblotting with the anti-Top1 antibody. Levels of α-tubulin were measured as a loading control. […] Statistical significance in cellular response to CPT between control BT474 cells and CUL4A^k/d or CUL4B^k/d cells were assessed by a two-tailed unpaired student t-test (***: p<0.001). […] Statistical significance in cellular response to camptothecin between control cells and CUL4A^k/d or CUL4B^k/d BT474 cells are assessed by student's t-test. […]

Row | Compound | Growth rate of cultured BT474 cells in vitro [1] | Levels of γH2AX (Western blotting) [2] | Association of Top1 with CUL4B [3]
1 | shCUL4B: lentiviral shRNA CUL4B sequence purchased from Sigma Aldrich, reduces CUL4B expression (CCGGGCAGAATTTAAAGAGGGTAAACTCGAGTTTACCCTCTTTAAATTCTGCTTTTT) | no effect |  | 
2 | CC[C@@]1(O)C(=O)OCc2c1cc1n(c2=O)Cc2cc3ccccc3nc2-1 [CPT, (S)-4-ethyl-4-hydroxy-1H-pyrano[3′,4′:6,7]indolizino[1,2-b]quinoline-3,14-(4H, 12H)-dione] |  | elevated | co-immunoprecipitated
